Data published in PubChem BioAssay AID1963979 (Molecular Pharmacology Branch, DTP, NCI, 2024).
“And” between values parts separate entries of the source, which are not always exact repeats. Equal entries are not always repeated.

System: 361931-004-R-J1-PDC multicell spheroid viability
Assay: Anticancer human tumor 361931-004-R-J1-PDC patient-derived colon adenocarcinoma cell line growth inhibition [PI3K]
Settings: for viability, T/C: stronger effect = lower value
Excerpt: Combinatorial screen of targeted agents with the PI3K inhibitors inavolisib, alpelisib, duvelisib, and copanlisib in multi-cell type tumor spheroids
A high-throughput screen of multi-cell type tumor spheroids was designed to identify active combinations of targeted small molecules and PI3K pathway inhibitors. Complex spheroids include a stromal component modeled by human endothelial cells (HUVEC) and fibroblasts modeled by human mesenchymal stem cells (MSCs). The concentration ranges selected for each drug and investigational agent were based upon clinically achievable concentrations if the clinical Cmax of the agent was known.
Compounds. The drugs and investigational agents: inavolisib (NSC800729), alpelisib (NSC765974), duvelisib (NSC772469), copanlisib (NSC816437), ipatasertib (NSC767898), afuresertib (NSC778305), talazoparib (NSC767125), sapanisertib (NSC764658), selumetinib (NSC741078), tovorafenib (DAY101, NSC766906), vemurafenib (NSC761431), ravoxertinib (NSC781343), sotorasib (NSC818433), MRTX1133 (NSC 836407), abemaciclib (NSC 768073), palbociclib (NSC758247), venetoclax (NSC 766270), SY5609 (NSC837396), enzalutamide (NSC755605), and darolutamide (NSC825331), were obtained from the National Cancer Institute (NCI) Developmental Therapeutics Program Chemical Repository. The FDA-approved anticancer drug set is available from the NCI Developmental Therapeutics Program. […] The stock solutions were prepared in dimethyl sulfoxide (DMSO, Sigma-Aldrich, St. Louis, MO, cat. D2650) at 800-fold the tested concentration and stored at -70 degrees C prior to their use. All drugs and investigational agents were tested over a range starting from a high concentration at or near the clinical Cmax and decreasing in half-log increments. If the clinical Cmax for an agent had not been determined, the highest concentration tested was 10 microM.
Cell Culture. All cells were maintained in an incubator at 37 degrees C and 5% CO2 with 95% humidity. The PDC lines were cultured according to standard operating procedures established by the NCI PDMR (https://pdmr.cancer.gov/sops/default.htm). All PDCs were thawed and cultured in Matrigel-coated flasks prepared with a working solution of 1X Ham's F-12 nutrient mix, without supplementation (Invitrogen, Waltham, MA, cat. 11765054), 100 U/mL penicillin-streptomycin (Invitrogen, cat. 15140122), and 2.5% Matrigel (Corning Inc., Corning, NY, cat. 354248) for the first three passages. The 354836-022-R-J1-PDC, 475296-252-R-J1-PDC, and 997726-040-R-J2-PDC lines were cultured in 6A media, which includes advanced DMEM/F-12 (Thermo Fisher Scientific, cat. 12634028), 10 mM HEPES (Thermo Fisher Scientific, cat. 15630080), 1X GlutaMAX supplement (Thermo Fisher Scientific, cat. 35050061), 0.1 mg/mL primocin (InvivoGen, San Diego, CA, cat. ant-pm-2), 10% defined fetal bovine serum, heat inactivated (HyClone Laboratories Inc., Logan, UT, cat. SH30070.03HI), 50% L-WRN conditioned media (ATCC, cat. CRL-3276), 1.25 mM N-Acetyl-L-cysteine (Sigma-Aldrich, cat. A9165), 10 mM nicotinamide (Sigma-Aldrich, cat. N0636), 1X B-27 supplement (Thermo Fisher Scientific, cat. 17504044), 1X N-2 supplement (Thermo Fisher Scientific, cat. 17502048), and 10 microM Y-27632 dihydrochloride (Tocris Bioscience, Bristol, United Kingdom, cat. 1254). The 624824-186-R-J2-PDC line was cultured in 6C/Colon 1B media, which includes all 6A media components plus 50 ng/mL human EGF recombinant protein (Thermo Fisher Scientific, cat. PHG0311). […]

[1] = compound alone, run of 05/08/2023
[2] = compound alone, run of 05/09/2023
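Further: spheroids exposed to agents for seven days before readout.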

IC50 (curve of compound)	SMILES	viability, T/C (compound 0.0316 µM)	viability, T/C (compound 0.1 µM)	viability, T/C (compound 0.316 µM)	viability, T/C (compound 1 µM)	viability, T/C (compound 3.16 µM)	viability, T/C (compound 10 µM)	viability, T/C (compound 0.00316 µM)	viability, T/C (compound 0.01 µM)	other results
> 10 µM	C#Cc1c(F)ccc2cc(O)cc(-c3ncc4c(N5CC6CCC(C5)N6)nc(OCC56CCCN5CC(F)C6)nc4c3F)c12 (stereo unspecified)	104% [middle of 4 runs]	106% [middle of 4 runs]	100% [middle of 4 runs]	104% [middle of 4 runs]	96.7% [middle of 4 runs]	–	–	–	–
> 10 µM	C=CC(=O)N1CCN(c2nc(=O)n(-c3c(C)ccnc3C(C)C)c3nc(-c4c(O)cccc4F)c(F)cc23)C(C)C1 (stereo unspecified)	99.5% [middle of 4 runs]	95.4% [middle of 4 runs]	105% [middle of 4 runs]	103% [middle of 4 runs]	100% [middle of 4 runs]	99.2% [middle of 4 runs]	–	–	–
> 0.1 µM	CC(=O)c1c(C)c2cnc(Nc3ccc(N4CCNCC4)cn3)nc2n(C2CCCC2)c1=O	108% (2×) and 92.8% and 104%	86.5% [middle of 4 runs]	–	–	–	–	100% [middle of 4 runs]	103% [middle of 4 runs]	viability, T/C (compound 0.000316 µM): 103% [middle of 4 runs]; viability, T/C (compound 0.001 µM): 105% [middle of 4 runs]
–	CC(C)NCC(C(=O)N1CCN(c2ncnc3c2C(C)CC3O)CC1)c1ccc(Cl)cc1 (stereo unspecified)	97.8% [middle of 4 runs]	99.3% [middle of 4 runs]	94.3% [middle of 4 runs]	–	48.7% [middle of 4 runs]	31.1% [middle of 4 runs]	–	–	–
> 0.1 µM	CC(C)n1nc(-c2ccc3oc(N)nc3c2)c2c(N)ncnc21	99.3% [middle of 4 runs]	76% [middle of 4 runs]	–	–	–	–	108% and 100% (2×) and 104%	108% and 100% (2×) and 101%	viability, T/C (compound 0.000316 µM): 99.8% [middle of 4 runs]; viability, T/C (compound 0.001 µM): 102% [middle of 4 runs]
> 10 µM	CC(Cn1ccc(-c2ccc(C#N)c(Cl)c2)n1)NC(=O)c1cc(C(C)O)[nH]n1 (stereo unspecified)	104% [middle of 4 runs]	97.2% [middle of 4 runs]	105% [middle of 4 runs]	104% [middle of 4 runs]	102% [middle of 4 runs]	106% [middle of 4 runs]	–	–	–
–	CC(Nc1ccc2c(c1)OCCn1cc(N3C(=O)OCC3C(F)F)nc1-2)C(N)=O (stereo unspecified)	98.1% [middle of 8 runs]	94.3% [middle of 8 runs]	92.9% [middle of 8 runs]	88.1% [middle of 8 runs]	–	–	98.9% [middle of 8 runs]	97.8% [middle of 8 runs]	IC50 [1]: > 1 µM
–	CC(Nc1ncnc2nc[nH]c12)c1cc2cccc(Cl)c2c(=O)n1-c1ccccc1 (stereo unspecified)	106% [middle of 8 runs]	102% [middle of 8 runs]	105% [middle of 8 runs]	104% [middle of 8 runs]	103% [middle of 8 runs]	102% [middle of 8 runs]	–	–	IC50 [2]: > 10 µM
4.94 µM and 4.18 µM and 5.61 µM	CC1(C)CCC(CN2CCN(c3ccc(C(=O)NS(=O)(=O)c4ccc(NCC5CCOCC5)c([N+](=O)[O-])c4)c(Oc4cnc5[nH]ccc5c4)c3)CC2)=C(c2ccc(Cl)cc2)C1	100% [middle of 4 runs]	101% [middle of 4 runs]	101% [middle of 4 runs]	102% [middle of 4 runs]	–	3.75% [middle of 4 runs]	–	–	–
5.1 µM [middle of 4 runs]	CCCS(=O)(=O)Nc1ccc(F)c(C(=O)c2c[nH]c3ncc(-c4ccc(Cl)cc4)cc23)c1F	103% (2×) and 94% and 108%	103% and 101% (2×) and 98.4%	97.1% [middle of 4 runs]	92.3% [middle of 4 runs]	82% [middle of 4 runs]	8.31% [middle of 4 runs]	–	–	–
> 1 µM	CCN1CCN(Cc2ccc(Nc3ncc(F)c(-c4cc(F)c5nc(C)n(C(C)C)c5c4)n3)nc2)CC1	–	101% [middle of 4 runs]	–	–	–	–	104% (2×) and 94% and 103%	105% [middle of 4 runs]	–
> 10 µM	CNC(=O)c1ccc(N2C(=S)N(c3ccc(C#N)c(C(F)(F)F)c3)C(=O)C2(C)C)cc1F	101% [middle of 4 runs]	101% [middle of 4 runs]	104% [middle of 4 runs]	110% and 103% (2×) and 102%	98.6% [middle of 4 runs]	92.4% [middle of 4 runs]	–	–	–
–	COc1c(OCCCN2CCOCC2)ccc2c3n(c(=NC(=O)c4cnc(N)nc4)nc12)CCN3	95.4% [middle of 8 runs]	80.6% [middle of 8 runs]	55.9% [middle of 8 runs]	22.8% [middle of 8 runs]	–	–	102% [middle of 8 runs]	98.4% [middle of 8 runs]	IC50 [2]: 393 nM [middle of 8 runs]
> 10 µM	C[C@@H](NC(=O)c1ncnc(N)c1Cl)c1ncc(C(=O)Nc2cc(C(F)(F)F)c(Cl)cn2)s1	106% [middle of 4 runs]	103% and 104% (2×) and 115%	107% [middle of 4 runs]	99.6% [middle of 4 runs]	99.3% [middle of 4 runs]	100% [middle of 4 runs]	–	–	–
–	Cc1nc(NC(=O)N2CCCC2C(N)=O)sc1-c1ccnc(C(C)(C)C(F)(F)F)c1 (stereo unspecified)	101% [middle of 8 runs]	–	97.9% [middle of 8 runs]	91.2% [middle of 8 runs]	87.2% [middle of 8 runs]	73.8% [middle of 8 runs]	–	–	IC50 [1]: > 10 µM
2.44 µM and > 3 µM and 2.72 µM	Cn1cnc2c(F)c(Nc3ccc(Br)cc3Cl)c(C(=O)NOCCO)cc21	–	–	–	–	–	–	–	–	viability, T/C (compound 0.00949 µM): 97.8% [middle of 4 runs]; viability, T/C (compound 0.03 µM): 92.1% [middle of 4 runs]; viability, T/C (compound 0.0949 µM): 90% [middle of 4 runs]; viability, T/C (compound 0.3 µM): 86.4% [middle of 4 runs]; viability, T/C (compound 0.949 µM): 84% [middle of 4 runs]; viability, T/C (compound 3 µM): 62.8% [middle of 4 runs]
–	Cn1ncc(Cl)c1-c1cc(C(=O)NC(CN)Cc2cccc(F)c2)sc1Cl (stereo unspecified)	94.2% [middle of 4 runs]	97.2% [middle of 4 runs]	–	–	46.3% [middle of 4 runs]	29.7% [middle of 4 runs]	–	–	–
> 10 µM and 9.47 µM	Cn1nccc1Nc1nccc(-c2ccn(C(CO)c3ccc(Cl)c(F)c3)c(=O)c2)n1 (stereo unspecified)	106% [middle of 4 runs]	92.5% [middle of 4 runs]	97% [middle of 4 runs]	95.2% [middle of 4 runs]	78.3% [middle of 4 runs]	61.8% [middle of 4 runs]	–	–	–
> 0.1 µM	Cn1ncnc1[C@H]1c2n[nH]c(=O)c3cc(F)cc(c23)N[C@@H]1c1ccc(F)cc1	102% [middle of 4 runs]	–	–	–	–	–	96.5% [middle of 4 runs]	101% [middle of 4 runs]	viability, T/C (compound 0.000316 µM): 103% [middle of 4 runs]; viability, T/C (compound 0.001 µM): 99.7% [middle of 4 runs]
